Measurements from patent US8580733B2, “Site-specific monoconjugated insulinotropic GLP-1 peptides” (Bio-Ker SRL, priority 2008, dated 2013).
Ends that are not written are not given here.

Tests used:
[1] = target: T1, DPP-IV (Dipeptidyl peptidase IV from porcine kidney) (Sus scrofa, UniProt P22411); assay: In vitro stability to DPP-IV digestion; assay type: in vitro ADME; details: for Degradation % at 24 h: peptide 0.1 mg/ml in PBS
T1 construct: purchased Sigma; host or cells: porcine kidney (tissue-derived)
Method: The enzymatic degradation was calculated from His-Ala title of each sample, as shown for example in FIG. 1

diabetic (db/db) mice = assay: Oral glucose tolerance test in diabetic mice; assay type: in vivo; details: for Tglu<100 mg/dl (time to lower the blood glucose level under 100 (±5) mg/dl) / Glumax (maximum blood glucose level) / HD% control (total hypoglycemic degree as percent of saline control): 100 μg/kg 30 min before oral glucose […]; for Glumax (maximum blood glucose level): first 180 min; for HD% control (total hypoglycemic degree as percent of saline control): AUC 0-180 min vs saline
Method: Food was withdrawn for an 18-h period prior to and for 3 hours after oral administration of a glucose solution (1.5 g/kg body weight); food was again […] 6 hours after glucose administration. 40 μg/ml of products to be tested and negative control (phosphate buffered saline) were administered by subcutaneous injection of a volume of 2.5 ml/kg body weight, 30 minutes prior glucose administration. Blood samples were collected from the tail vein of conscious mice before the injection and at 15, 30, 60, 120, 180, 240, 300, 1440 min post injection and glucose concentration was measured by gluco tester Ascensia Elite (Bayer).

T1 sequence (P22411 whole entry): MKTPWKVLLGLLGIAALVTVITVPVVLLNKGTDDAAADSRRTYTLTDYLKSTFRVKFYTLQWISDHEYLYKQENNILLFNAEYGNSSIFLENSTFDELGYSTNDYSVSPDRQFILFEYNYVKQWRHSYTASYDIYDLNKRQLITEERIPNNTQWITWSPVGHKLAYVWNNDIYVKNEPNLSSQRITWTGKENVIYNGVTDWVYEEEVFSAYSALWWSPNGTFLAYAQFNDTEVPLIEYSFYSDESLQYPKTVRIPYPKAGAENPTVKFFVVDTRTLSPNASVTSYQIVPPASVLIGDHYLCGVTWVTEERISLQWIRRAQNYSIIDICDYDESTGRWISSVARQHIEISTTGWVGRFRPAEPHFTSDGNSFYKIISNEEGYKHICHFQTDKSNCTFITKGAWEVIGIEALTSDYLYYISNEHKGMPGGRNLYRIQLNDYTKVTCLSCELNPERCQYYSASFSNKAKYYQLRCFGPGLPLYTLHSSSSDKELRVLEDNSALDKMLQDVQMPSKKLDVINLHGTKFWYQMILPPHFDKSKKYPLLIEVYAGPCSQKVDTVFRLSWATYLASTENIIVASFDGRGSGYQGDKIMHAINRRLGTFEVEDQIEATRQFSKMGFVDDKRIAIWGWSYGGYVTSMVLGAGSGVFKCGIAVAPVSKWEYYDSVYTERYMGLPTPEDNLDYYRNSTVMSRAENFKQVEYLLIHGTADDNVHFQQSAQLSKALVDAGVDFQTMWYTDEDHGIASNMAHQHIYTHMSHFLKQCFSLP

Compound | Degradation % (at 8 h) ([1]; DPP-IV 5 U/ml, 37° C., at 8 h) | inactivation by cleavage of the N-terminal dipeptide ([1]; DPP-IV, after 8 hours at 37° C.) | Degradation % at 24 h ([1]; DPP-IV 5 U/ml, 37° C.) [%] | final biological efficacy compared with exenatide (diabetic (db/db) mice) | Tglu<100 mg/dl (time to lower the blood glucose level under 100 (±5) mg/dl) (diabetic (db/db) mice) [min] | Glumax (maximum blood glucose level) (diabetic (db/db) mice) [mg/dL] | HD% control (total hypoglycemic degree as percent of saline control) (diabetic (db/db) mice) [%]
CC[C@H](C)[C@H](NC(=O)[C@H](Cc1ccccc1)NC(=O)[C@H](CCC(=O)O)NC(=O)[C@H](CCCCN)NC(=O)[C@H](C)NC(=O)[C@H](C)NC(=O)[C@H](CCC(N)=O)NC(=O)CNC(=O)[C@H](CCC(=O)O)NC(=O)[C@H](CC(C)C)NC(=O)[C@H](Cc1ccc(O)cc1)NC(=O)[C@H](CO)NC(=O)[C@H](CO)NC(=O)[C@@H](NC(=O)[C@H](CC(=O)O)NC(=O)[C@H](CO)NC(=O)[C@@H](NC(=O)[C@H](Cc1ccccc1)NC(=O)[C@@H](NC(=O)CNC(=O)[C@H](CCC(=O)O)NC(=O)[C@H](C)NC(=O)[C@@H](N)Cc1c[nH]cn1)[C@@H](C)O)[C@@H](C)O)C(C)C)C(=O)N[C@@H](C)C(=O)N[C@@H](Cc1c[nH]c2ccccc12)C(=O)N[C@@H](CC(C)C)C(=O)N[C@H](C(=O)N[C@@H](CCCCN)C(=O)NCC(=O)N[C@@H](CCCNC(=N)N)C(N)=O)C(C)C [GLP-1-amide, GLP-1(7-36)-amide, reference compound] | 100 (at 8 h) % | completely inactivated |  |  |  |  | 
GLP-1-amide-Q17-PEG 20 kDa: GLP-1-amide monopegylated on glutamine 17 with 20 kDa m-PEG-amine by microbial transglutaminase |  |  | 37 | comparable or better than the one displayed by exenatide | 60 | 213.9 | 58.3
GLP-1-amide-Q17-PEG 30 kDa: GLP-1-amide monopegylated on glutamine 17 with 30 kDa m-PEG-amine by microbial transglutaminase |  |  | 25 | comparable or better than the one displayed by exenatide | 60 | 167.7 | 63.5
GLP-1-amide-Q17N/A24Q-PEG 20 kDa: Q17N/A24Q-GLP-1-amide monopegylated on glutamine 24 with 20 kDa m-PEG-amine by microbial transglutaminase (HAEGTFTSDVSSYLEGNAAKEFIQ(PEG 20 kDa)WLVKGRG-NH2; UniProt P01275 98-128, looked up, variant Q17N A24Q) |  |  | 41 |  |  |  | 
HAEGTFTSDVSSYLEGNAAKEFIQWLVKGR-NH2 [GLP-1-amide-Q17N/A24Q] |  |  | 90 |  |  |  | 
